Key:
gankyrin [1] = molecular target: T1, gankyrin (Homo sapiens, UniProt O75832); test: ITC; assay type: binding
T1 construct: gene PSMD10; His-tagged full-length human gankyrin
T1 sequence (O75832 1-226): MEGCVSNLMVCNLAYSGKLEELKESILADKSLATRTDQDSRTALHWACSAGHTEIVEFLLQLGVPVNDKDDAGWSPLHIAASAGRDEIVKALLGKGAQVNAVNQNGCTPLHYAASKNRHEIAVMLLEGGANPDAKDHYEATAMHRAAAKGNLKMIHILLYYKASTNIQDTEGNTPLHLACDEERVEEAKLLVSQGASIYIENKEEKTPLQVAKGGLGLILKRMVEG

gankyrin [2] = molecular target: T1, gankyrin; test: ITC (Kd […], stoichiometry […]); also label-free MST (Kd […]), thermal shift, 1H-15N HSQC NMR; assay type: binding

Row | Kd (gankyrin [1]) | Kd (gankyrin [2]) | SMILES
1 | ~10 µM |  | CCCNC(=O)c1ccc(-n2cc(CCCNS(=O)(=O)c3ccc(C)cc3)nn2)cc1 [compound 8]
2 |  | 0.58 ± 0.07 µM | COC(=O)c1ccc(-n2cc(CCCOS(=O)(=O)c3ccc(C)cc3)nn2)cc1 [cjoc42]
3 | ~56 µM |  | COC(=O)c1ccc(-n2cc(CNS(=O)(=O)c3ccc4ccccc4c3)nn2)cc1 [compound 12]

Reference: PMC4820706, “Discovery of a small-molecule binder of the oncoprotein gankyrin that modulates gankyrin activity in the cell” (Scientific Reports, 2016)
